Test results from patent US8338638B2, “Antimicrobial derivatives of anacardic acid and process for preparing the same” (Unichem Laboratories Ltd., priority 2006, dated 2012).
Values after ≈ are worked out from the molar mass of the structure shown. Like-named read-outs stand apart in the source and are kept apart here.

Experiments:
[1] = tested on: MRSA; test: Broth assay, antibacterial activity (MIC/MBC) against MRSA; format: cell-based, Methicillin resistant Stapphalococcus aureus; conditions: Staphylococcus aureus; for MIC: 24 h
Experimental: (§1) The invention specifically relates to the process for the preparation of antimicrobial derivatives of saturated anacardic acid (C15:0). The mixture of anacardic acids chromatographically purified from CNSL was hydrogenated using Pd—C to get the saturated anacardic acid (C15:0). Said derivatives were prepared by adopting the techniques used in synthetic chemistry for nitration, halogenation and acetylation of various organic compounds. The synthesized derivatives were assayed for anti bacterial activity against Stapphalococcus aureus and Methicillin resistant Stapphalococcus aureus and Enterococcus fecalis by the broth assay used for antibiotic susceptibility tests and the minimum inhibitory concentration (MIC) and minimum bactericidal concentration (MBC) determined.
(§2) Procedure for Antimicrobial Testing:
(§3) The bacterial colonies from Luria-Bertani (LB) agar plates were inoculated into sterile LB broth and incubated in an incubator shaker for 12 h. This culture was diluted such that the innoculum when added to the test broth would correspond to 10^5 colony forming units (CFU). The broth assays were done in sterile culture tubes containing 5 mL of LB medium. The test compounds dissolved in ethanol and controls were added to these tubes and then the innoculum was added and the tubes incubated at 37° C. for 24 h. After 24 h incubation the OD600 was recorded and then plated on LB agar plates and incubated fore 24 h at 37° C. The colonies were counted and the minimum inhibitory concentration (MIC) and minimum bactericidal concentration (MBC) calculated. The MIC is determined by the minimum concentration of the sample at which no growth was observed as determined by measuring the OD600. The MBC is determined by the concentration at which there is a reduction in the cfu in the broth assay from 10^5 to 10^3 counted after plating on LB agar plates.

[2] = tested on: Sa (NCTC8325); test: Broth assay, antibacterial activity (MIC/MBC) against Sa (NCTC8325); format: cell-based, Stapphalococcus aureus; conditions: for MIC: 24 h
Experimental: as §1, §2, §3

[3] = tested on: E. fecalis; test: Broth assay, antibacterial activity (MIC/MBC) against E. fecalis; format: cell-based; conditions: Enterococcus; for MIC: 24 h
Experimental: as §1, §2, §3

[4] = tested on: MRSA; conditions: against MRSA; Kube et al; cited from earlier work
[5] = LB broth, 37° C., no growth by OD600, read-out: MIC
[6] = reduction in cfu from 10^5 to 10^3 after plating on LB agar, read-out: MBC
[7] = Sa (NCTC8325), LB broth, 37° C., no growth by OD600, read-out: MIC
[8] = Sa (NCTC8325), reduction in cfu from 10^5 to 10^3 after plating on LB agar, read-out: MBC
[9] = E. fecalis, LB broth, 37° C., no growth by OD600, read-out: MIC
[10] = E. fecalis, reduction in cfu from 10^5 to 10^3 after plating on LB agar, read-out: MBC

Row | Structure (SMILES) | MIC [1, 5] [µg/mL] | MIC [2, 7] [µg/mL] | MIC [3, 9] [µg/mL] | MBC [1, 6] [µg/mL] | MBC [2, 8] [µg/mL] | MBC [3, 10] [µg/mL] | minimum inhibitory concentration (MIC) [4] [µg/mL] | MBC [1] [µg/mL] | MIC [1] [µg/mL] | MBC [2] [µg/mL] | MIC [2] [µg/mL] | MBC [3] [µg/mL] | MIC [3] [µg/mL]
1 | CCCCCCCCCCCCCCCc1cccc(O)c1C(=O)O [AA, 6-pentadecyl salicylic acid, reference compound] | > 50 | > 10 | 0.5 (≈ 1.43 µM) | > 50 | > 10 | 6 (≈ 17.2 µM) | 1600 (≈ 4590 µM) | – | – | – | – | – | –
2 | CCCCCCCCCCCCCCCc1cccc(OC(C)=O)c1C(=O)O [AAA, 6-Pentadecyl-2-acetyloxybenzoic acid] | 2 (≈ 5.12 µM) | 6 (≈ 15.4 µM) | 1 (≈ 2.56 µM) | 6 (≈ 15.4 µM) | 7 to 8 (≈ 17.9 to 20.5 µM) | 6 (≈ 15.4 µM) | – | – | – | – | – | – | –
3 | CCCCCCCCCCCCCCCc1c([N+](=O)[O-])cc([N+](=O)[O-])c(OC(C)=O)c1C(=O)O [ADAA, 3,5-Dinitro-6-pentadecyl-2-acetyloxybenzoic acid] | 4 (≈ 8.32 µM) | 2 (≈ 4.16 µM) | 6 (≈ 12.5 µM) | 10 (≈ 20.8 µM) | 6 (≈ 12.5 µM) | 6 (≈ 12.5 µM) | – | – | – | – | – | – | –
4 | CCCCCCCCCCCCCCCc1cc([N+](=O)[O-])c([N+](=O)[O-])c(OC(C)=O)c1C(=O)O [ANAA, 3,4-Dinitro-6-pentadecyl-2-acetyloxybenzoic acid] | 2 (≈ 4.16 µM) | 1 (≈ 2.08 µM) | 0.5 (≈ 1.04 µM) | > 10 | > 10 | 7 (≈ 14.6 µM) | – | – | – | – | – | – | –
5 | CCCCCCCCCCCCCCCc1c([N+](=O)[O-])cc([N+](=O)[O-])c(O)c1C(=O)O [DAA, 3,5-Dinitro-6-pentadecyl-2-hydroxybenzoic acid] | – | – | – | – | – | – | – | 6 (≈ 13.7 µM) | 3 (≈ 6.84 µM) | 3 to 5 (≈ 6.84 to 11.4 µM) | 2 (≈ 4.56 µM) | 6 (≈ 13.7 µM) | 6 (≈ 13.7 µM)
6 | CCCCCCCCCCCCCCCc1c([N+](=O)[O-])cc([N+](=O)[O-])c(OC)c1C(=O)O [MDAA, 3,5-Dinitro-6-pentadecyl-2-Methoxybenzoic acid] | 2 (≈ 4.42 µM) | 6 (≈ 13.3 µM) | 0.5 (≈ 1.1 µM) | 4 (≈ 8.84 µM) | 8 (≈ 17.7 µM) | 2 (≈ 4.42 µM) | – | – | – | – | – | – | –
7 | CCCCCCCCCCCCCCCc1cc([N+](=O)[O-])c([N+](=O)[O-])c(O)c1C(=O)O [NAA, 3,4-Dinitro-6-pentadecyl-2-hydroxybenzoic acid] | – | – | – | – | – | – | – | 10 (≈ 22.8 µM) | 1 (≈ 2.28 µM) | 7 to 8 (≈ 16 to 18.2 µM) | 1 (≈ 2.28 µM) | 7 (≈ 16 µM) | 0.5 (≈ 1.14 µM)
8 | C=CCC=CCC=CCCCCCCCc1cccc(O)c1C(=O)O [triene (C15:3)] | – | – | – | – | – | – | 6.5 (≈ 19 µM) | – | – | – | – | – | –

More lines, main results first:

Row | MIC [1, 5] [µg/mL] | MIC [2, 7] [µg/mL] | MIC [3, 9] [µg/mL] | Structure (SMILES) | MBC [1, 6] [µg/mL] | MBC [2, 8] [µg/mL] | MBC [3, 10] [µg/mL] | minimum inhibitory concentration (MIC) [4] [µg/mL] | MBC [1] [µg/mL] | MIC [1] [µg/mL] | MBC [2] [µg/mL] | MIC [2] [µg/mL] | MBC [3] [µg/mL] | MIC [3] [µg/mL]
9 | 9 to 10 (≈ 19.2 to 21.3 µM) | > 10 | 1 (≈ 2.13 µM) | CCCCCCCCCCCCCCCc1c(Br)ccc(OC(C)=O)c1C(=O)O [ADBAA, 5-Bromo-6-pentadecyl-2-acetyloxybenzoic acid] | > 10 | > 10 | 3 (≈ 6.39 µM) | – | – | – | – | – | – | –
10 | > 20 | > 10 | 6 (≈ 14 µM) | CCCCCCCCCCCCCCCc1c(Br)ccc(O)c1C(=O)O [DBAA, 5-Bromo-6-pentadecyl-2-hydroxybenzoic acid] | > 20 | > 10 | 6 (≈ 14 µM) | – | – | – | – | – | – | –
11 | 1 (≈ 2.76 µM) | 1 (≈ 2.76 µM) | 1 (≈ 2.76 µM) | CCCCCCCCCCCCCCCc1cccc(OC)c1C(=O)O [MAA, 2-Methoxy-6-Pentadecyl-benzoic acid] | 4 (≈ 11 µM) | 8 (≈ 22.1 µM) | 6 (≈ 16.5 µM) | – | – | – | – | – | – | –
12 | 10 to 20 (≈ 17.8 to 35.7 µM) | > 10 | 6 (≈ 10.7 µM) | CCCCCCCCCCCCCCCc1cccc(OC)c1C(=O)NC1C(=O)N2C1SC(C)(C)C2C(=O)O (centres unmarked) [MAA-APA] | > 20 | > 10 | > 10 | – | – | – | – | – | – | –
13 | > 20 | > 10 | 6 (≈ 9.98 µM) | C=C[C@@](C)(/C=C/c1ccc(OC(=O)c2c(CCCCCCCCCCCCCCC)cccc2OC)cc1)CCC=C(C)C [MAA-Ba] | > 20 | > 10 | > 10 | – | – | – | – | – | – | –
14 | > 20 | > 10 | 6 (≈ 11.8 µM) | CCCCCCCCCCCCCCCc1cccc(OC)c1C(=O)NC(Cc1ccccc1)C(=O)O (centres unmarked) [MAA-F] | > 20 | > 10 | > 10 | – | – | – | – | – | – | –
15 | > 20 | > 10 | 6 (≈ 12.5 µM) | CCCCCCCCCCCCCCCc1cccc(OC)c1C(=O)Nc1ccc(C(=O)O)cc1 [MAA-PABA] | > 20 | > 10 | > 10 | – | – | – | – | – | – | –
16 | > 20 | > 10 | > 10 | CCCCCCCCCCCCCCCc1cccc(OC)c1C(=O)Nc1ccc([N+](=O)[O-])cc1 [MAA-PNA] | > 20 | > 10 | > 10 | – | – | – | – | – | – | –
17 | 2 (≈ 3.8 µM) | 3 to 5 (≈ 5.71 to 9.51 µM) | 6 (≈ 11.4 µM) | CCCCCCCCCCCCCCCc1cccc(OC)c1C(=O)NC(Cc1ccc(O)cc1)C(=O)O (centres unmarked) [MAAY] | 10 (≈ 19 µM) | > 10 | > 10 | – | – | – | – | – | – | –
18 | 0.5 (≈ 1.13 µM) | 3 to 5 (≈ 6.8 to 11.3 µM) | 1 (≈ 2.27 µM) | CCCCCCCCCCCCCCCc1c(Br)ccc(OC)c1C(=O)O [MDBAA, 5Bromo-6-pentadecyl-2-methoxybenzoic acid] | 4 (≈ 9.06 µM) | 5 (≈ 11.3 µM) | 3 (≈ 6.8 µM) | – | – | – | – | – | – | –
